The results in this text go back to article PMC7366380, “Discovery of a Potent and Selective Covalent Inhibitor and Activity-Based Probe for the Deubiquitylating Enzyme UCHL1, with Antifibrotic Activity” (Journal of the American Chemical Society, 2020).

Where “and” joins values, the source holds several entries; their conditions need not be identical. Equal values may be shown once.

The target in test [1] is T1, UCHL1 (Homo sapiens, UniProt P09936).
T1 sequence (P09936 1-223): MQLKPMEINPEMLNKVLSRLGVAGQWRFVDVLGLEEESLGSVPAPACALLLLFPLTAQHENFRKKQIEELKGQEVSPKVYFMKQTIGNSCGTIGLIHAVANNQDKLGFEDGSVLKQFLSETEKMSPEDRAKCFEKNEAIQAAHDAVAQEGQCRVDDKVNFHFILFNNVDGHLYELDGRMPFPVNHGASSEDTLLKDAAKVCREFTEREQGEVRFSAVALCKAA
The test is described as follows: UCHL1 inhibitor kinetic analysis (Ub-AMC fluorescence intensity). Format: biochemical. Details: rapidly targets endogenous UCHL1 in cells; endogenous in cells; host or cells: HEK293. The note with it: UCHL1 3 nM, Ub-AMC 130 nM; read-out: kobs/I.

Test [2] has as its target T2, endogenous UCHL1 (Homo sapiens, UniProt P09936).
T2 construct: endogenous in cells; host or cells: EA.hy926 and A549
The test is described as follows: ABP 2 target engagement in EA.hy926 and A549 cells (in-gel fluorescence, immunoblot). Format: cell-based. The note with it: 3 h. From the text: Figure S13. ABP 2 target engagement in A549 and EA.hy926 cells. […]
labeled proteins ligated to AzTB capture reagent. (a) Labeled proteins were separated by SDS-PAGE and visualised by in-gel fluorescence. (b) Labeled proteins were enriched by NeutrAvidin magnetic beads. Total lysate (TL), supernatant (SN) an d pulldown (PD) samples […]
Preparation of UCHL1 overexpression cell lysates
After cell lysis and CuAAC […]
relative to the sample volume.
SDS-PAGE and in-gel fluorescence imaging
The protein samples were separated
Biotin affinity enrichment for immunoblot analysis […]
re-suspended as described previously.
Proteins were separated by SDS-
Sample preparation for MS-based proteomic analysis
For orientation: In western blotting, separated proteins are transferred to a membrane and probed.

In test [3] the target is T1, UCHL1. The test is described as follows: Quantitative chemical proteomic profiling of ABP 2 in HEK293 cells (AzRB enrichment, TMT): UCHL1. The note with it: for Log2 reporter intensity values (Log2FC, DMSO substract): UCHL1, listed as ABP 2.
Test [4] deals with DUBs and other proteins in HEK293 cells (Homo sapiens, UniProt Q93008). The test is described as follows: Quantitative chemical proteomic profiling of ABP 2 in HEK293 cells: other DUBs and proteins across the proteome. The note with it: USP9X, listed as ABP 2.
Test [5] addresses T3, DUBs and other proteins in HEK293 cells (Homo sapiens, UniProt Q53GS9).
T3 sequence (Q53GS9 1-565): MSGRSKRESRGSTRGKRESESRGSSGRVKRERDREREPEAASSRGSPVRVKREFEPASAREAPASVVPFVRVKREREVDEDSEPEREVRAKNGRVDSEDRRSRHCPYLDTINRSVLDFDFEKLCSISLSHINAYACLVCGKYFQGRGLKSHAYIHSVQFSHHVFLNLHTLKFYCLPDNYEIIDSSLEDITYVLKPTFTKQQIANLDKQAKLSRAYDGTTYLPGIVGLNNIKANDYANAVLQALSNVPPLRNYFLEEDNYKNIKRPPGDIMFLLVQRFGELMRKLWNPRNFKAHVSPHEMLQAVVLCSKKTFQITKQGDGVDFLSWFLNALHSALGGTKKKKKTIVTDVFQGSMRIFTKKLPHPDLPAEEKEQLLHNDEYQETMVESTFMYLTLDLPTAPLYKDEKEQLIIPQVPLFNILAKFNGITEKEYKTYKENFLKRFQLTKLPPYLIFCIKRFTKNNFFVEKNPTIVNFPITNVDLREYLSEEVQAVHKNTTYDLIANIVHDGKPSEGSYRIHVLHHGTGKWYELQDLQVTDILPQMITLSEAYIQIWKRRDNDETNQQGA
The test is described as above. The note with it: USP39.

Test [6] deals with DUBs and other proteins in HEK293 cells (Homo sapiens, UniProt Q6P2Q9). The description is as above. The note with it: PRPF8, listed as ABP 2.
Test [7] has as its target DUBs and other proteins in HEK293 cells (Homo sapiens, UniProt P51784). The test is described as above. The note with it: USP11, listed as ABP 2.
Test [8] addresses DUBs and other proteins in HEK293 cells (Homo sapiens, UniProt Q7L5N1). Described as above. The note with it: COPS6, listed as ABP 2.
The target in test [9] is T1, UCHL1. The note with it: compared with 1.
The mark [10] stands for this setting: 200 nM, 180 min, replicates A,C.

Chain of DUBs and other proteins in HEK293 cells (Homo sapiens, UniProt Q7L5N1) (Q7L5N1 whole entry): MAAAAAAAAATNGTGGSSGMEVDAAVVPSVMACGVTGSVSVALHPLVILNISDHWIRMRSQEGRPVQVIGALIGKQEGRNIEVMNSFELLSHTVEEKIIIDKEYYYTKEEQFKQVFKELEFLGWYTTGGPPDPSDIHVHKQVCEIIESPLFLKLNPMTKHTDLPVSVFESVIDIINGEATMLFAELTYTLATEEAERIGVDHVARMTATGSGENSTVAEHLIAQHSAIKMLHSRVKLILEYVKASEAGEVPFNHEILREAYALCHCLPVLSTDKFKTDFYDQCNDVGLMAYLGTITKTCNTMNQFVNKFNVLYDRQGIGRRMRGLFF
Chain of DUBs and other proteins in HEK293 cells (Homo sapiens, UniProt Q93008) (Q93008 whole entry): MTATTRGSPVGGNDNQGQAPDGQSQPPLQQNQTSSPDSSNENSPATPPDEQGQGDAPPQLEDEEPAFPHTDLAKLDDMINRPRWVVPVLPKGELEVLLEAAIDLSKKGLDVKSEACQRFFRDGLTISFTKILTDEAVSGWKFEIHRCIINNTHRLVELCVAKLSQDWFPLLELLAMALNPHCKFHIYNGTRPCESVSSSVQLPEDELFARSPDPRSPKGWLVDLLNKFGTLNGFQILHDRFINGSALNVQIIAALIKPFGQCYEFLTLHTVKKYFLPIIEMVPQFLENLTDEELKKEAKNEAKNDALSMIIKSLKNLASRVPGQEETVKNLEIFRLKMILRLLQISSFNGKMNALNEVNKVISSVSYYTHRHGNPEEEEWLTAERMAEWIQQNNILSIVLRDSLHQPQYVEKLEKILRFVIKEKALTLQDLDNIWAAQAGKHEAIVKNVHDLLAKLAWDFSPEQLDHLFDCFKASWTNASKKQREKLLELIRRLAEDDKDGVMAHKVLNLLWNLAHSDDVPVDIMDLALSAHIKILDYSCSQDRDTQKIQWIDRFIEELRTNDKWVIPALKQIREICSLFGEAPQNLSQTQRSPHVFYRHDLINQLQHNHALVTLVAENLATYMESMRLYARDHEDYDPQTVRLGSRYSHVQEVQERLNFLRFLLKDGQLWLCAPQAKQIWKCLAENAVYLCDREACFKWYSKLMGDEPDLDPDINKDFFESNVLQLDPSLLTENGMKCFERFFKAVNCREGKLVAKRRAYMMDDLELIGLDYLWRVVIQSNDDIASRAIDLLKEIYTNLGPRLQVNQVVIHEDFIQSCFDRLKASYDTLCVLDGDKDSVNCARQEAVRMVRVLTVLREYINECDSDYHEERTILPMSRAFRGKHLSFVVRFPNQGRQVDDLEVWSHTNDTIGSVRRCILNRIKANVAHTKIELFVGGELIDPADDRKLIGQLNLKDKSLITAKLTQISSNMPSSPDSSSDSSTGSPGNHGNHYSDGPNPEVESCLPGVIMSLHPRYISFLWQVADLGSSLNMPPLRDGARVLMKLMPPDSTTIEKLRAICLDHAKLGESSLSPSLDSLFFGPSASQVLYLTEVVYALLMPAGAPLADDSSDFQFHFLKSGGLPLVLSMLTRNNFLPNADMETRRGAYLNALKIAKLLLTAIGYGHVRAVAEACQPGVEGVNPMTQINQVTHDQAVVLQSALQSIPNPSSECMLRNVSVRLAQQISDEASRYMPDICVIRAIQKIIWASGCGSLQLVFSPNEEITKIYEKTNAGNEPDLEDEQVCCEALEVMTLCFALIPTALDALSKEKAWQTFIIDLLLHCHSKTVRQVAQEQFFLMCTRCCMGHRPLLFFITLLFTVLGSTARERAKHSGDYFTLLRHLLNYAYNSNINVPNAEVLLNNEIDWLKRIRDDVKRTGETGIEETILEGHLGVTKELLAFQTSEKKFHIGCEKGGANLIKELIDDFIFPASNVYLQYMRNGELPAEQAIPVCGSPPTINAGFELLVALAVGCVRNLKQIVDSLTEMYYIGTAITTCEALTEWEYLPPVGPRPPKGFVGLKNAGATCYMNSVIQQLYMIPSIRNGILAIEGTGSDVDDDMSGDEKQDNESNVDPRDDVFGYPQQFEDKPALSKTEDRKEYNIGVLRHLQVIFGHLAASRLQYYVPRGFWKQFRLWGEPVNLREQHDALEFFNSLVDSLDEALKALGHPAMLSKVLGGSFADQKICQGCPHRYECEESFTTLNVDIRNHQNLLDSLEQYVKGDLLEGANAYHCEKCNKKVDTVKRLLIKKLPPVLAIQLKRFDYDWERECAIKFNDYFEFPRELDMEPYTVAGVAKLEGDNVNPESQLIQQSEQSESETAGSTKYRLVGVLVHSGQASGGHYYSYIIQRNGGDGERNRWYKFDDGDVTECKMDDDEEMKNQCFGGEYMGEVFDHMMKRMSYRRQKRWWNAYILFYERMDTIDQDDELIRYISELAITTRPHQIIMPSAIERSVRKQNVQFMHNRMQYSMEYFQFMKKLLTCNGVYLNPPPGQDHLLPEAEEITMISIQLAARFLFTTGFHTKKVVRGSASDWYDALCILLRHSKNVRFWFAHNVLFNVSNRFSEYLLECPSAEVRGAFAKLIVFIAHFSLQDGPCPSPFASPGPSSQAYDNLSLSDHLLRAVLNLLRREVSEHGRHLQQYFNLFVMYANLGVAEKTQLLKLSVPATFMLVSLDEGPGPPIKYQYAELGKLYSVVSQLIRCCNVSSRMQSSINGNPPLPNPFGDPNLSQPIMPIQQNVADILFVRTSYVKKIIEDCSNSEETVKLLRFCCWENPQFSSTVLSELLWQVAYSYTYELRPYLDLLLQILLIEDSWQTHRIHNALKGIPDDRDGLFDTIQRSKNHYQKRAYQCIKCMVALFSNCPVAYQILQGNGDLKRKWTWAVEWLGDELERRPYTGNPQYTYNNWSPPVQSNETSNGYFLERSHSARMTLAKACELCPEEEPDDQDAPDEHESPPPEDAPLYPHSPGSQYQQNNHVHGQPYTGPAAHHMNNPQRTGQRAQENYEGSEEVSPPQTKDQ
Chain of DUBs and other proteins in HEK293 cells (Homo sapiens, UniProt P51784) (P51784 whole entry): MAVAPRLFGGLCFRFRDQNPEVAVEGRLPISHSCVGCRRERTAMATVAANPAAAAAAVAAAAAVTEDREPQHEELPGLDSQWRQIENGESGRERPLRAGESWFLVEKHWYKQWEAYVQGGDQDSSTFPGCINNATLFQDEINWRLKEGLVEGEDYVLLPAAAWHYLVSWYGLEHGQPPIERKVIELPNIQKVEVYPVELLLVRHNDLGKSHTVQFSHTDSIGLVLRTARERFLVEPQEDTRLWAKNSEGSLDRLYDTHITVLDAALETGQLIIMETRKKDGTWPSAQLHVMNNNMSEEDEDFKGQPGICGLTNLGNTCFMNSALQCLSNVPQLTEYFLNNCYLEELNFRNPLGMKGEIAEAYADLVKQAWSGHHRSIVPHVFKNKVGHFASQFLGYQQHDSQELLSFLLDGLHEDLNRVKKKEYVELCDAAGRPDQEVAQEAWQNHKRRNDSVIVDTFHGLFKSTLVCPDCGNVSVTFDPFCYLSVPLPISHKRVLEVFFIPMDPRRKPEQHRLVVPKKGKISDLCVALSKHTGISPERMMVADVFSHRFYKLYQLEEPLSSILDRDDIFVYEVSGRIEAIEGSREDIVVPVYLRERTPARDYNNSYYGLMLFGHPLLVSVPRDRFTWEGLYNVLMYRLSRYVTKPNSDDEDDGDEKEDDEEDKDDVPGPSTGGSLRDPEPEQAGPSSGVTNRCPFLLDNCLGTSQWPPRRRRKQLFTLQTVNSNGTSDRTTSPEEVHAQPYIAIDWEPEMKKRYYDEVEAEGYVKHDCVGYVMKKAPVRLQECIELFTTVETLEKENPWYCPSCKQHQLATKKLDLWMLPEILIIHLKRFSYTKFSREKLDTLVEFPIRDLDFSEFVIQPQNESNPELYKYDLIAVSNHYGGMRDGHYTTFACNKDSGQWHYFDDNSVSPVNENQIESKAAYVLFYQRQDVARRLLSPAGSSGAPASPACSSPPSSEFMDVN

As for `N#CN1CCC[C@H]1C(=O)N1CCc2c(-c3c[nH]c4ncccc34)cccc21` [Compound 1], the kinact/KI in [1] was 7400 M⁻¹ s⁻¹.
Consider `C#Cc1cnc2[nH]cc(-c3cccc4c3CCN4C(=O)[C@@H]3CCCN3C#N)c2c1` [Compound 2], for which the “profiling of endogenous UCHL1 activity in other cell types” value in [2] is recorded as “excellent selectivity”. For the same compound, in [3] (HEK293, 2 nM vs DMSO, 1 h, enrichment, TMT, n=3), the “Log2 t-test Difference, UCHL1, 2 nM” value is 1.208. In addition, in [3] (HEK293, 20 nM vs DMSO, 1 h, enrichment, TMT, n=3), the “Log2 t-test Difference, UCHL1, 20 nM” value was found to be 2.871. Besides, in test [3] (HEK293, 200 nM vs DMSO, 1 h, enrichment, TMT, n=3), the “Log2 t-test Difference, UCHL1, 200 nM” value turned out to be 3.757. In addition, the “UCHL1 enrichment (chemical proteomics)” value in test [3] (HEK293, 2, 20 or 200 nM, 10, 60 or 180 min) is given as “significantly enriched”. The “Log2 reporter intensity values (Log2FC, DMSO substract)” value (shortened to “Log2 reporter intensity values”) in [3] (2 nM, 60 min, replicates A-C) is 1.19 and 1.075; in test [3] (20 nM, 10 min, replicates B,C), 2.249 and 2.237; in test [3] (20 nM, 60 min, replicates A-C) it was 3.049 and 2.943 and 2.622; in [3] (20 nM, 180 min, replicates A-C), 2.8835 and 2.817 and 2.539; in test [3] (200 nM, 10 min, replicates B,C), 3.8701 and 3.284; in [3] (200 nM, 60 min, replicates A-C), 3.775 and 4.082 and 3.414. The “Log2 reporter intensity values” value in [3] (setting [10]) was 3.588 and 3.369; in [4] (2 nM, 60 min, replicates A-C), 0.06074 and 0.05768 and -0.1222; in test [4] (20 nM, 10 min, replicates B,C), 0.0266 and 0.08583; in test [4] (20 nM, 60 min, replicates A-C), -0.07107 and -0.1083 and 0.02034; in [4] (20 nM, 180 min, replicates A-C) it was -0.3167 and 0.0151 and 0.03374; in test [4] (200 nM, 10 min, replicates B,C) it was 0.03305 and -0.1026. Also, the “Log2 reporter intensity values” value in test [4] (200 nM, 60 min, replicates A-C) is 0.09885 and 0.2045 and -0.1344; in test [4] (setting [10]), 0.109 and 0.1534; in test [5] (2 nM, 60 min, replicates A-C, listed as ABP 2), 0.1489 and -0.6669; in test [5] (20 nM, 10 min, replicates B,C), 0.2437; in test [5] (20 nM, 60 min, replicates A-C, listed as ABP 2), 0.1765 and 0.5295; in test [5] (20 nM, 180 min, replicates A-C, listed as ABP 2), 0.1037 and 0.2866. Further, the “Log2 reporter intensity values” value in test [5] (200 nM, 10 min, replicates B,C) is 0.594; in test [5] (200 nM, 60 min, replicates A-C, listed as ABP 2), 0.3986 and 0.5245; in [5] (setting [10]), 0.3314; in test [6] (2 nM, 60 min, replicates A-C) it was -0.06588 and -0.04701 and -0.09225; in test [6] (20 nM, 10 min, replicates B,C), -0.04258 and -0.0756; in test [6] (20 nM, 60 min, replicates A-C), -0.1603 and -0.1771 and -0.09715. Moreover, the “Log2 reporter intensity values” value in test [6] (20 nM, 180 min, replicates A-C) is -0.4052 and -0.02523 and -0.1285; in test [6] (200 nM, 10 min, replicates B,C) it was -0.213 and -0.1784; in test [6] (200 nM, 60 min, replicates A-C), 0.0802 and -0.1457 and -0.1731; in test [6] (setting [10]) it was -0.0003694 and 0.003479; in [7] (2 nM, 60 min, replicates A-C) it was 0.1233 and -0.3054 and -0.2167; in test [7] (20 nM, 10 min, replicates B,C), -0.09443 and -0.2626. In addition, the “Log2 reporter intensity values” value in [7] (20 nM, 60 min, replicates A-C) was -0.4096 and 0.07333 and 0.009688; in test [7] (20 nM, 180 min, replicates A-C), -0.127 and -0.3984 and -0.1331; in test [7] (200 nM, 10 min, replicates B,C) it was 0.008113 and -0.08322; in test [7] (200 nM, 60 min, replicates A-C) it was 0.1655 and -0.03212 and -0.2868; in [7] (setting [10]), 0.2311 and 0.03651; in [8] (2 nM, 60 min, replicates A-C), -0.04023 and 0.308. Also, the “Log2 reporter intensity values” value in [8] (20 nM, 10 min, replicates B,C) was -0.278 and 0.05496; in test [8] (20 nM, 60 min, replicates A-C) it was -0.132 and -0.1593 and 0.09464; in [8] (20 nM, 180 min, replicates A-C) it was -0.02381 and 0.4095 and -0.1139; in test [8] (200 nM, 10 min, replicates B,C), 0.1379 and -0.08033; in [8] (200 nM, 60 min, replicates A-C), 0.1575 and 0.03437 and 0.12; in test [8] (setting [10]) it was 0.2559 and 0.1548.
For `N#CN1CCC[C@@H]1C(=O)N1CCc2c(-c3c[nH]c4ncccc34)cccc21` [Compound 3], in [9], the “fold less active than 1 (UCHL1 FP assay)” value was over 1000 fold.
